Measurements reported in patent US20210388337A1, “PROTEIN-POLYMER CONJUGATES AND METHODS FOR THEIR PREPARATION” (Carnegie Mellon University, priority 2018, published 2021).

Columns and labels:
native avidin [1] = molecular target: T1, native avidin (Gallus gallus, UniProt P02701); experiment: Biotin effect on quenched fluorescence; type: binding; settings: native avidin 5 μM; free initiator or free initiation inhibitor 5.12 mM; biotin 10 μM
T1 construct: Avidin is a tetrameric protein purified from egg white; purchased Lee Biosolutions; host or cells: egg white
Experimental: Biotin effect on quenched fluorescence: […] Free initiator (10 μL, final concentrations 5.12 mM) or free initiation inhibitor (10 μL, final concentrations 5.12 mM) were added to avidin solution and florescence intensities were measured. After the fluorescence intensities were recorded with free initiator or free initiation inhibitor, biotin (10 μL, final concentration 10 μM) was added to the mixture and fluorescence intensities were measured again.

native avidin [2] = molecular target: T1, native avidin; experiment: Tryptophan fluorescence quenching assay; type: binding; settings: native avidin 5 μM; added at 20 μM-5.12 mM
Experimental: Tryptophan fluorescence quenching assay: Intrinsic tryptophan fluorescence intensity of native avidin (180 μL, final concentration 5 μM) was measured at an excitation wavelength of 270 nm and emission of 300-400 nm in a 96-well plate. N-2-bromo-2-methylpropanoyl-β-alanine (free initiator) (20 μL, final concentrations 20 μM, 80 μM, 320 μM, 1.28 mM, 5.12 mM) or N-2-methylpropanoyl-β-alanine (free initiation inhibitor) (20 μL, final concentrations 20 μM, 80 μM, 320 μM, 1.28 mM, 5.12 mM) were added to native avidin and tryptophan fluorescence was measured again.

[3] = Hydrodynamic diameter by dynamic light scattering; type: physicochemical; settings: DLS; for substrate size (Dh): biotinylated substrates, text and FIG. 10 legend
Experimental: Measuring conjugate hydrodynamic diameter: The DLS data was collected on a Malvern Zetasizer nano-ZS. Native avidin and avidin conjugates ([…]) were dissolved in 0.1 M sodium phosphate, pH 8. The hydrodynamic diameter (Dh) of the samples was measured three times (12 runs/measurement). Reported values are number distribution intensities.
Instrumentation and Sample Analysis Preparations: ^1H and ^13C NMR were recorded on a spectrometer (300 MHz, 75 MHz, Bruker Avance™ 300), with deuterium oxide (D2O), DMSO-d6, and CDCl3. Routine FT-IR spectra were obtained with a Nicolet Magna-IR 560 spectrometer (Thermo). UV-VIS spectra were obtained and used for protein concentration determination using a UV-VIS spectrometer (Lambda 2, PerkinElmer). Melting points (mp) were measured with a Laboratory Devices Mel-Temp. Number and weight average molecular weights (Mn and Mw) and the polydispersity index (Mw/Mn) were estimated by gel permeation chromatography (GPC) on a Water 2695 Series with a data processor, equipped with three columns (Waters Ultrahydrogel Linier, 500 and 250), using Dulbecco's Phosphate Buffered Saline with 0.02 wt % sodium azide as an eluent at flow rate 1.0 mL/min, with detection by a refractive index (RI) detector. Pullulan standards (PSS-Polymer Standards Service—USA Inc., Amherst, Mass.) were used for calibration. Matrix-Assisted Laser Desorption Ionization Time-of-Flight Spectrometry (MALDI-ToF MS) was performed with a Perseptive Biosystems Voyager Elite MALDI-TOF spectrometer. Dynamic Light Scattering (DLS) data were collected on a Malvern Zetasizer nano-ZS. The concentration of the sample solution was kept at 1.0 mg/mL. The hydrodynamic diameter of samples was measured three times (5 run to each measurement, reported as number distribution) in 0.1 M sodium phosphate, pH 8. Biotin and bio-PEG binding kinetics were measured using a stopped-flow spectrometer with fluorescence detection (Applied Photophysics SX20). […] The excitation wavelength was set to 295 nm and emission wavelength was monitored at 340 nm. […] Fluorescence was measured in volts.

Biotin-aprotinin = molecular target: T2, Biotin-aprotinin (Bos taurus, UniProt P00974); experiment: Stopped-flow biotin-protein binding kinetics, biotin-aprotinin; settings: avidin 0.5 μM, biotin-protein 5.0 μM, 0.1 M phosphate buffer pH 8
T2 construct: purchased Sigma Aldrich
Experimental: (§1) The solution was stirred at 4° C. for 2 hours and protein-biotin conjugates were purified by dialysis using 15 kDa molecular mass cutoff dialysis tube in deionized water and then lyophilized.
(§2) Biotin-Protein binding kinetics: For biotinylated protein binding kinetics avidin conjugates (0.5 μM final) were mixed with biotin-protein (5.0 μM final) in a stopped-flow accessory on PTI QuantaMaster-400 fluorometer (Horiba Instruments Inc.). The dead time of the instrument was 60 ms. The excitation wavelength was 295 nm (to selectively excite tryptophan residues) with a 20 nm bandwidth (Skelly et al., FEBS Lett 262:127-130, 1990). Excitation occurred through a 1.96-mm path in the stopped-flow optical cell, and emission was measured through a 7.68-mm path. […]
(§3) Instrumentation and Sample Analysis Preparations: ^1H and ^13C NMR were recorded on a spectrometer (300 MHz, 75 MHz, Bruker Avance™ 300), with deuterium oxide (D2O), DMSO-d6, and CDCl3. […] Melting points (mp) were measured with a Laboratory Devices Mel-Temp. […] The hydrodynamic diameter of samples was measured three times (5 run to each measurement, reported as number distribution) in 0.1 M sodium phosphate, pH 8. Biotin and bio-PEG binding kinetics were measured using a stopped-flow spectrometer with fluorescence detection (Applied Photophysics SX20). […] The excitation wavelength was set to 295 nm and emission wavelength was monitored at 340 nm. […]

[4] = Stopped-flow biotin-PEG binding kinetics, 550 Da; settings: for Biotin-PEG 550 Da k/s^−1: avidin 0.5 μM, biotin-PEG 5.0 μM, 0.1 M phosphate buffer pH 8
Experimental: (§4) Biotin and biotin PEG binding kinetics: Kinetic measurements of avidin-pCBMA conjugates with biotin and biotin-PEG substrates were taken using a stopped-flow spectrometer with fluorescence detection (Applied Photophysics SX20). The dead time of the instrument was 2 ms. The excitation wavelength was 270 nm with 5 nm bandwidth. Instrument permitted to collect 1000 data points throughput the reaction (0.1-450 s). For all experiments avidin concentration was 0.5 μM (final) and biotin or biotin-PEG concentration was 5.0 μM (final). Reactions were initiated by mixing equal volumes of avidin with its substrates in 0.1 M phosphate buffer, pH 8. Fluorescence was measured in volts. Data were fit to single exponential functions using F(t)=F∞·ΔFexp(−kobst) equation, where, kobs is the observed first-order rate constant, F∞ is the final value of fluorescence and ΔF is the amplitude. In case of native avidin kinetics the data were fit to single exponential functions using F(t)=F∞+ΔFexp(−kobst) equation, where, kobs is the observed first-order rate constant, F∞ is the final value of fluorescence and ΔF is the amplitude. All data analysis was performed in Microsoft Excel.
Instrumentation and Sample Analysis Preparations: ^1H and ^13C NMR were recorded on a spectrometer (300 MHz, 75 MHz, Bruker Avance™ 300), with deuterium oxide (D2O), DMSO-d6, and CDCl3. Routine FT-IR spectra were obtained with a Nicolet Magna-IR 560 spectrometer (Thermo). UV-VIS spectra were obtained and used for protein concentration determination using a UV-VIS spectrometer (Lambda 2, PerkinElmer). Melting points (mp) were measured with a Laboratory Devices Mel-Temp. […] The hydrodynamic diameter of samples was measured three times (5 run to each measurement, reported as number distribution) in 0.1 M sodium phosphate, pH 8. Biotin and bio-PEG binding kinetics were measured using a stopped-flow spectrometer with fluorescence detection (Applied Photophysics SX20). […] The excitation wavelength was set to 295 nm and emission wavelength was monitored at 340 nm. […] Fluorescence was measured in volts.

[5] = Stopped-flow biotin-PEG binding kinetics, 30 kDa; settings: avidin 0.5 μM, biotin-PEG 5.0 μM, 0.1 M phosphate buffer pH 8
Experimental: as §4, with “All data analysis was performed in Microsoft Excel.” left out
(§5) Instrumentation and Sample Analysis Preparations: ^1H and ^13C NMR were recorded on a spectrometer (300 MHz, 75 MHz, Bruker Avance™ 300), with deuterium oxide (D2O), DMSO-d6, and CDCl3. […] Melting points (mp) were measured with a Laboratory Devices Mel-Temp. […]

Biotin-HRP = experiment: Stopped-flow biotin-protein binding kinetics, biotin-HRP; settings: avidin 0.5 μM, biotin-protein 5.0 μM, 0.1 M phosphate buffer pH 8
Experimental: as §1, §2, §3

[6] = Stopped-flow binding kinetics of biotin to avidin and avidin-pCBMA conjugates; settings: kobs first-order, avidin 0.5 μM, biotin 5.0 μM, 0.1 M phosphate buffer pH 8
Experimental: as §4, with “All data analysis was performed in Microsoft Excel.” left out
as §5

[7] = work described elsewhere (Kurzban et al.); 337 to 324 nm, blue shift in emission; cited from earlier work
[8] = Stopped-flow biotin-PEG binding kinetics, 10 kDa; settings: avidin 0.5 μM, biotin-PEG 5.0 μM, 0.1 M phosphate buffer pH 8
Experimental: as §4, with “All data analysis was performed in Microsoft Excel.” left out
as §5

[9] = Stopped-flow biotin-PEG binding kinetics, 5 kDa; settings: avidin 0.5 μM, biotin-PEG 5.0 μM, 0.1 M phosphate buffer pH 8
Experimental: as §4, with “All data analysis was performed in Microsoft Excel.” left out
as §5

[10] = Table 4, low-density avidin conjugates
[11] = Table 9, high-density avidin conjugates

O=C(O)CCCC[C@@H]1SC[C@@H]2NC(=O)N[C@@H]21 [biotin]
effect on tryptophan fluorescence of native avidin incubated with free initiator or free initiation inhibitor (native avidin [1]): restored the quenched tryptophan fluorescence

CC(C)C(=O)NCCC(=O)O [free initiation inhibitor, N-2-methylpropanoyl-β-alanine]
effect on tryptophan fluorescence of native avidin incubated with free initiator or free initiation inhibitor (native avidin [1]): did not have effect on fluorescence | quenching of native avidin tryptophan fluorescence (native avidin [2]): None of the tested concentrations of initiation inhibitor had an effect on fluorescence

CC(C)(Br)C(=O)NCCC(=O)O [free initiator, N-2-bromo-2-methylpropanoyl-β-alanine]
quenching of native avidin tryptophan fluorescence (native avidin [2]): higher degree of fluorescence quenching

Aprotinin [reference compound]
Dh (hydrodynamic size) ([3]; bio-pro substrates, Table 3): 2.4 ± 0.4 | substrate size (Dh) ([3]; listed as biotin-aprotinin): 2.4±0.4 nm | substrate size (Dh) ([3]; listed as biotinylated aprotinin): 2.4 nm

Native avidin
Biotin-aprotinin k/s^−1 (Biotin-aprotinin; [10]): 73.45 s⁻¹ | Biotin-aprotinin k/s^−1 (Biotin-aprotinin; [11]): 73.45 s⁻¹ | Biotin-PEG 550 Da k/s^−1 [4, 10]: 20.93 s⁻¹ | Biotin-PEG 550 Da k/s^−1 [4, 11]: 20.93 s⁻¹ | binding rate of biotin-PEG 550 Da, slower than biotin ([4]; relative to biotin binding rate): 80% | Biotin-PEG 30 kDa k/s^−1 [5, 10]: 5.89 s⁻¹ | Biotin-PEG 30 kDa k/s^−1 [5, 11]: 5.89 s⁻¹ | Biotin-HRP k/s^−1 (Biotin-HRP; [10]): 5.03 s⁻¹ | Biotin-HRP k/s^−1 (Biotin-HRP; [11]): 5.03 s⁻¹ | Biotin k/s^−1 [6, 10]: 105.21 s⁻¹ | Biotin k/s^−1 [6, 11]: 105.21 s⁻¹ | intrinsic tryptophan fluorescence of avidin upon biotin binding [7]: decreased | Biotin-PEG 10 kDa k/s^−1 [8, 10]: 12.02 s⁻¹ | Biotin-PEG 10 kDa k/s^−1 [8, 11]: 12.02 s⁻¹ | Biotin-PEG 5 kDa k/s^−1 [9, 10]: 17.02 s⁻¹ | Biotin-PEG 5 kDa k/s^−1 [9, 11]: 17.02 s⁻¹
